Target: T1, TGase2 (Homo sapiens, UniProt P21980)
T1 sequence (P21980 1-687): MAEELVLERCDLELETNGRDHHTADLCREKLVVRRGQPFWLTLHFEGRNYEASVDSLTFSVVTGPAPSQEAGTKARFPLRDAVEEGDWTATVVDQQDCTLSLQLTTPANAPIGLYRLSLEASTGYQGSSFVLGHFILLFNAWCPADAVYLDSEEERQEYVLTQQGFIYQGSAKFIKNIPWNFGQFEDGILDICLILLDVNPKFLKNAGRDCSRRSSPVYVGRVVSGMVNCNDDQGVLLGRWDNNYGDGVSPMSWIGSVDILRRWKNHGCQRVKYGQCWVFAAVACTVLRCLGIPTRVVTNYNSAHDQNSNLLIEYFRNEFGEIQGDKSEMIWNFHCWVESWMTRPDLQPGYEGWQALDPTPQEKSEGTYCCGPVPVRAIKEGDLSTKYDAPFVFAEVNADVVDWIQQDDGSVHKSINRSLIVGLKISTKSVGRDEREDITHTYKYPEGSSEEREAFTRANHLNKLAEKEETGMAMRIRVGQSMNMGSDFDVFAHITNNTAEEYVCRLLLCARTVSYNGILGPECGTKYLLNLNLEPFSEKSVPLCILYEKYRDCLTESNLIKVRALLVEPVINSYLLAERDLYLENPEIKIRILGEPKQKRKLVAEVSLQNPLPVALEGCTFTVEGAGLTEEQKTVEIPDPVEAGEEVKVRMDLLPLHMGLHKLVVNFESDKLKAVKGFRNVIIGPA
Experiment: In-situ TGase activity by confocal microscopy in VEGF-treated HRECs
Format: cell-based
Set-up: endogenous in cells; host or cells: human retinal endothelial cells (HRECs)
Settings: 10 ng/ml VEGF 2 hrs, 50 μM cystamine, 20 μM MDC, 5 μM BAPTA-AM, 1 mM NAC, 0.5 μM Trolox, p<0.001
Experimental: HUVEC isolation was done by our own supply and Human retinal endothelial cells (HRECs) were purchased from the Applied Cell Biology Research Institute (Cell Systems, Kirkland, Wash.). Both respectively were grown on 2% gelatin-coated plates in a M199 medium supplemented with 20% fetal bovine serum (FBS), 3 ng/ml basic fibroblastic growth factor, 5 units/ml heparin, 100 units/ml penicillin, and 100 μg/ml streptomycin. For experiments, cells were incubated for 6 hrs in a low-serum medium supplemented with 1% FBS and antibiotics.
In-situ Tgase transamidating activity was determined via confocal microscopic assay according to a previously known procedure. In brief, cells were incubated with 1 mM 5-(biotinamido)pentylamine (BAPA) for 1 hr at 37° C., fixed with 3.7% formaldehyde in PBS for 30 min, and permeabilized with 0.2% Triton X-100 in PBS for 30 min. After incubation with a blocking solution of 2% BSA in 20 mM Tris (pH 7.6), 138 mM NaCl, and 0.1% Tween 20 for 30 min, cells were treated with Cy3-conjugated streptavidin (1:200, v/v) in the blocking solution for 1 hr. Single-cell fluorescence intensities of stained cells were determined using confocal microscopy for 10 randomly selected cells per test. TGase activities were determined by comparing average fluorescence intensities of treated cells with those of control cells (expressed as multiples thereof).
HRECs were transfected with human TGase2-specific siRNA as described previously. In brief, cells were transfected with various concentrations of human TGase2-siRNA or 100 nM control siRNA (Dharmacon, Lafayette, Colo.) using siLentFect lipid reagent (Bio-Rad Laboratories, Hercules, Calif.) according to the manufacturer's instructions. Six hours after transfection with the indicated concentrations, the medium was replaced with a fresh culture medium and the transfected cells were further incubated for 24 hrs.
A detailed description of FIGS. 1A-1F are given below. […] (A, B) HRECs were incubated with 10 ng/ml VEGF for the indicated times (A) or for 2 hrs (B) in the presence of TGase inhibitors (50 μM cystamine and 20 μM MDC), 5 μM Ca^2+ chelator BAPTA-AM, or ROS scavengers (1 mM NAC or 0.5 μM Trolox). In-situ TGase activity was determined by confocal microscopy as described in Research Design and Methods (A: Time course changes in VEGF-induced transglutaminase activation; and B: Effects of various inhibitors on VEGF-induced transglutaminase activation). (C,D) HRECs were transfected with the indicated concentrations (C) or 100 nM (D) of human TGase2-specific siRNA (TGase2 siRNA) or 100 nM control (Ctrl) siRNA. Endothelial cells were treated with 10 ng/ml VEGF and subjected to confocal microscopic determination of in-situ TGase activity (C: Dose-dependent inhibition of TGase2 expression by TGase2 siRNA, TGase2 expression being analyzed by Western blot; and D: TGase2 siRNA prevention of VEGF-induced transglutaminase activation). FIGS. 1E and 1F show the effects of various inhibitors on the elevation of intracellular Ca^2+ (E) and ROS (F). Intracellular Ca^2+ and ROS levels were determined by confocal microscopy as described in Research Design and Methods. Results are expressed as mean±SD from three independent trials (***p<0.001).

VEGF-induced TGase activation (in-situ TGase activity) | Structure (SMILES)
inhibited | Cc1c(C)c2c(c(C)c1O)CCC(C)(C(=O)O)O2 (stereo not drawn) [Trolox]
prevented | NCCSSCCN [cystamine]
prevented | CN(C)c1cccc2c(S(=O)(=O)NCCCCCN)cccc12 [MDC, monodansylcadaverine]
